Source: US10653651B2, “Kit for treating cancer with low molecular weight components of aurin tricarboxylic acid complex” (Aurin Biotech Inc., priority 2014, dated 2020)
Read-outs that look alike come from different tables or passages of the source.

Legend:
Assay type in all cases: cell-based, human
BT 474 cells = experiment: Lactic dehydrogenase release from BT 474 cells; details: n=4, read-out: IC50, lactate dehydrogenase release from BT 474 cells
Method: (§1) Experiment 4 was designed to confirm apoptotic cell death of U251 cells induced by ATA, AQA, AHA, and ATAC by measuring release of lactic dehydrogenase into the cell medium. For serum lactate dehydrogenase determination, reaction supernatants ([…]) were pipetted into the wells of 96-well plates, followed by the addition of […] lactate solution (36 mg/mL in PBS) and […] INT (iodonitrotetrazolium chloride, 2-(4-iodophenyl)-3-(4-nitrophenyl)-5-phenyl-2H-tetrazolium chloride) solution (2 mg/mL in PBS). The enzymatic reaction was started by addition of […] of NAD^+/diaphorase solution (3 mg/mL NAD^+; 2.3 mg solid/mL diaphorase). After 1 h, optical densities were measured with a microplate reader using a 490 nm filter. The amount of LDH released was expressed as a percentage of the value obtained in comparative cells where cells were 100% lysed by 1% Triton X-100.
Experiment 14 was designed to determine if apoptotic cell death of BT 474 cells was induced by ATA, AQA, AHA, and ATAC as determined by the release of lactic dehydrogenase into the cell medium. The protocol was identical to that used in Experiment 5(d) except that BT 474 cells were used.

A549 cells = experiment: Lactic dehydrogenase release from A549 cells; details: n=4, read-out: IC50, lactate dehydrogenase release from A549 cells
Method: as §1
Experiment 8 was designed to confirm apoptotic cell death of BxPC-3 cells induced by ATA, AQA, AHA, and ATAC by the release of lactic dehydrogenase into the cell medium.
Experiment 12 was designed to confirm apoptotic cell death of A549 cells induced by ATA, AQA, AHA, and ATAC by the release of lactic dehydrogenase into the cell medium. The protocol was identical to that used in Experiment 8 except A549 cells were used.

VEGF = experiment: Western blot of VEGF expression and release by U251 cells; details: 10 μM, 1 day; for expression of vascular endothelial growth factor (VEGF) in U251 cells: cell extract; for release of VEGF into the extracellular milieu by U251 cells: supernatant
Method: (§2) Experiment 2 was designed to determine the effect of ATA, AQA, and AHA on the expression and release of Factor H and VEGF by U251 cells. Cells were grown in DMEM for 24 h at 37° C., after which ATA, AQA, or AHA was added to the medium at a final concentration of 10 μM and incubation carried out for a further 24 h. The medium was drawn off, and the cells washed with PBS. Lysis buffer was then added to the cells. Forty microliters of the cell lysate, or the supernatant media, were loaded onto 12% polyacrylamide gels and separated under non-reducing conditions (70 V, 3-6 h). Following SDS-PAGE, proteins were transferred to a PVDF membrane (Bio-RadTM, CA) at 30 mA for 2 h. The membranes were blocked with 5% milk in PBS-T (80 mM Na2HPO4, 20 mM NaH2PO4, 100 mM NaCl, 0.1% Tween 20, pH 7.4) for 1 h, and incubated overnight at 4° C. with primary antibodies for Factor H (CytotechTM, goat 1/1000) and for VEGF (MilliporeTM, rabbit 1/2000). The membranes were then washed 3 times with PBST. They were then treated with an appropriate horseradish peroxidase (HRP)-conjugated secondary antibody for 3 h at room temperature. The secondary antibodies were anti-rabbit IgG (P0448, DAKOTM, Mississauga, Ontario, CA, 1/2,000) and anti-goat IgG (A[…], MilliporeTM, Billerica, Ma, 1/3,000). The bands were visualized with an enhanced chemiluminescence system and exposure to photographic film (Hyperfilm ECLTM, AmershamTM Pharmacia Biotech, Little Chalfont, UK). For reprobing of membranes with an alternative antibody, the membranes were treated with 10 mL of stripping buffer (3 mL of 1 M Tris-HCl pH 6.7, 10 mL of 10% SDS, 347 μL of 14 M mercaptoethanol, and 36.5 mL deionized water) at 60° C. for 1 h. The membrane was then placed on a shaking incubator for 30 min to clear it of all bound antibodies. The stripped membrane was then treated with a different primary antibody as previously described.

BxPC-3 cells = experiment: DNA laddering (apoptosis) in BxPC-3 cells; details: 10 μM, 1 day, agarose gel
Method: (§3) For determination of DNA laddering, which is indicative of DNA disintegration, cells were precipitated by centrifugation, washed, and lysed with […] Tris-HCl, 5 mM EDTA, and 3% Triton-X-100. The lysates were incubated at 37° C. for 1 h and then centrifuged at 12,000g for 10 min. They were treated with phenol/chloroform/isoamylalcohol (25:24:1) and chloroform/isoamylalcohol (24:1) twice each, and precipitated with 0.6 volume isopropyl alcohol and 0.1 volume 3 M sodium actate at −20° C. for 30 min. The precipitates were centrifuged at 12,000 g for 20 min, washed with 70% ethanol and dissolved with TE buffer containing 2 μg/mL bovine RNase. DNAs were electrophoresed in 10 μg/mL ethidium bromide containing 2% w/v agarose gel.

U251 cells = experiment: DNA laddering (apoptosis) in U251 cells; details: 10 μM, 1 day, agarose gel
Method: as §3

Factor H = experiment: Western blot of Factor H expression in U251 cells; details: 10 μM, 1 day, cell extract
Method: as §2, with “The bands were visualized with an enhanced chemiluminescence system and exposure to photographic film (Hyperfilm ECLTM, AmershamTM Pharmacia Biotech, Little Chalfont, UK). For reprobing of membranes with an alternative antibody, the membranes were treated with 10 mL of stripping buffer (3 mL of 1 M Tris-HCl pH 6.7, 10 mL of 10% SDS, 347 μL of 14 M mercaptoethanol, and 36.5 mL deionized water) at 60° C. for 1 h. The membrane was then placed on a shaking incubator for 30 min to clear it of all bound antibodies. The stripped membrane was then treated with a different primary antibody as previously described.” left out

Row | IC50 (BT 474 cells) [µM] | IC50 (A549 cells) [µM] | Compound | IC50 (BT 474 cells; Homo sapiens) [µM] | IC50 (A549 cells; Homo sapiens) [µM] | expression of vascular endothelial growth factor (VEGF) in U251 cells (VEGF) | release of VEGF into the extracellular milieu by U251 cells (VEGF) | DNA fragmentation (180 bp laddering) in BxPC-3 cells (BxPC-3 cells) | DNA fragmentation (180 bp laddering) in U251 cells (U251 cells) | expression of Factor H in U251 cells (Factor H)
1 | – | – | O=C(O)C1=CC(=C(c2ccc(O)c(C(=O)O)c2)c2ccc(O)c(C(=O)O)c2)C=CC1=O [ATA, aurin tricarboxylic acid] | 4.8 | 7.5 | – | – | – | – | –
2 | 4.9 | 7.6 | aurin hexacarboxylic acid [AHA] | – | – | reducing expression | reducing release | induced DNA fragmentation | induced DNA fragmentation | reducing expression
3 | 4.7 | 7.4 | aurin quadracarboxylic acid [AQA] | – | – | reducing expression | reducing release | induced DNA fragmentation | induced DNA fragmentation | reducing expression
